Test results as given in ChEMBL document CHEMBL1148208, “Aureoverticillactam, a novel 22-atom macrocyclic lactam from the marine actinomycete Streptomyces aureoverticillatus” (J Nat Prod, 2004).

Experiments:
Format in all cases: functional, cell-based
HT-29 = assay: Cytotoxicity against human HT29 cells after 48 hrs; conditions: HT-29, 48 h
B16-F10 = assay: Cytotoxicity against mouse B16F10 cells after 48 hrs; conditions: B16-F10, 48 h
Jurkat = assay: Cytotoxicity against human Jurkat cells after 48 hrs

SMILES: CCC/C=C/CC1C/C=C/C=C(C)/C=C/C=C\C(O)CC(O)C(O)/C=C/C=C/C=C/C(=O)N1 (stereo not drawn) [AUREOVERTICILLACTAM]
- EC50 (HT-29): 3600 nM
- EC50 (B16-F10): 2200 nM
- EC50 (Jurkat): 2300 nM
